Results from ChEMBL document CHEMBL5724914, “Linking interpersonal differences in gut microbiota composition and drug biotransformation activity” (2024).

Experiments:
[1] = human gut metagenome, 24 h, 2 µM
[2] = human gut metagenome, 24 h, 2 µM; remark: listed apart in the source
[3] = human gut metagenome, 24 h, 2 µM; remark: listed apart in the source
[4] = (§1) The drug is tested on Z-002 corresponding to rabbit gut metagenome with ENA study accession number: PRJEB37062 and ENA sample accession number: ERS12561802 for biotransformation under anaerobic condition. The drug concentrations were measured over 9 timepoints collected between 0 and 24 hours of incubation by liquid-chromatography-coupled mass spectrometry (LC–MS); conditions: 2 µM
[5] = as §1, with “Z-024” for “Z-002”, “pig” for “rabbit”, “ERS12561823” for “ERS12561802”; conditions: 2 µM
[6] = human gut metagenome, 24 h, 2 µM; remark: listed apart in the source
[7] = as §1, with “WLS-052” for “Z-002”, “human” for “rabbit”, “ERS12561747” for “ERS12561802”; conditions: 2 µM
[8] = as §1, with “Z-005” for “Z-002”, “to” for “to rabbit gut”, “ERS12561805” for “ERS12561802”; conditions: 2 µM
[9] = human gut metagenome, 24 h, 2 µM; remark: listed apart in the source
[10] = as §1, with “WLS-090” for “Z-002”, “human” for “rabbit”, “ERS12561753” for “ERS12561802”; conditions: 2 µM
[11] = human gut metagenome, 24 h, 2 µM; remark: listed apart in the source
[12] = human gut metagenome, 24 h, 2 µM; remark: listed apart in the source
[13] = as §1, with “Z-026” for “Z-002”, “to” for “to rabbit gut”, “ERS12561825” for “ERS12561802”; conditions: 2 µM
[14] = human gut metagenome, 24 h, 2 µM; remark: listed apart in the source
[15] = as §1, with “WLS-039” for “Z-002”, “human” for “rabbit”, “ERS12561746” for “ERS12561802”; conditions: 2 µM
[16] = human gut metagenome, 24 h, 2 µM; remark: listed apart in the source
[17] = as §1, with “WLS-350” for “Z-002”, “human” for “rabbit”, “ERS12561789” for “ERS12561802”; conditions: 2 µM
[18] = human gut metagenome, 24 h, 2 µM; remark: listed apart in the source
[19] = as §1, with “Z-020” for “Z-002”, “ERS12561819” for “ERS12561802”; conditions: 2 µM
[20] = human gut metagenome, 24 h, 2 µM; remark: listed apart in the source
Also: call rule not given here.

| Compound | Bacterial Biotransformation [1] | Bacterial Biotransformation [2] | Bacterial Biotransformation [3] | Bacterial Biotransformation [4] | Bacterial Biotransformation [5] | Bacterial Biotransformation [6] | Bacterial Biotransformation [7] | Bacterial Biotransformation [8] | Bacterial Biotransformation [9] | Bacterial Biotransformation [10] | Bacterial Biotransformation [11] | Bacterial Biotransformation [12] | Bacterial Biotransformation [13] | Bacterial Biotransformation [14] | Bacterial Biotransformation [15] | Bacterial Biotransformation [16] | Bacterial Biotransformation [17] | Bacterial Biotransformation [18] | Bacterial Biotransformation [19] | Bacterial Biotransformation [20] |
| --- | --- | --- | --- | --- | --- | --- | --- | --- | --- | --- | --- | --- | --- | --- | --- | --- | --- | --- | --- | --- |
| CCN(CC)C(=O)C1(c2ccccc2)CC1CN (stereo not given) | Compound NOT metabolized | Compound NOT metabolized | Compound NOT metabolized | Compound NOT metabolized | Compound NOT metabolized | Compound NOT metabolized | Compound NOT metabolized | Compound NOT metabolized | Compound NOT metabolized | Compound NOT metabolized | Compound NOT metabolized | Compound NOT metabolized | Compound NOT metabolized | Compound NOT metabolized | Compound NOT metabolized | Compound NOT metabolized | Compound NOT metabolized | Compound NOT metabolized | Compound NOT metabolized | Compound NOT metabolized |
| COc1cc2nc(N3CCN(C(=O)C4CCCO4)CC3)nc(N)c2cc1OC (stereo not given) [TERAZOSIN] | Compound NOT metabolized | Compound metabolized | Compound NOT metabolized | Compound NOT metabolized | Compound NOT metabolized | Compound NOT metabolized | Compound NOT metabolized | Compound metabolized | Compound metabolized | Compound metabolized | Compound NOT metabolized | Compound NOT metabolized | Compound NOT metabolized | Compound NOT metabolized | Compound NOT metabolized | Compound NOT metabolized | Compound NOT metabolized | Compound metabolized | Compound NOT metabolized | Compound NOT metabolized |
| CC(C)[C@H]1CC[C@H](C(=O)N[C@H](Cc2ccccc2)C(=O)O)CC1 [NATEGLINIDE] | Compound metabolized | Compound metabolized | Compound metabolized | Compound metabolized | Compound metabolized | Compound metabolized | Compound metabolized | Compound NOT metabolized | Compound metabolized | Compound metabolized | Compound metabolized | Compound metabolized | Compound NOT metabolized | Compound metabolized | Compound NOT metabolized | Compound NOT metabolized | Compound metabolized | Compound metabolized | Compound metabolized | Compound metabolized |
| CCN(CC)CCNC(=O)c1ccc(NC(C)=O)cc1 [ACECAINIDE] | Compound NOT metabolized | Compound NOT metabolized | Compound NOT metabolized | Compound metabolized | Compound NOT metabolized | Compound NOT metabolized | Compound NOT metabolized | Compound NOT metabolized | Compound metabolized | Compound metabolized | Compound NOT metabolized | Compound NOT metabolized | Compound NOT metabolized | Compound NOT metabolized | Compound NOT metabolized | Compound NOT metabolized | Compound NOT metabolized | Compound metabolized | Compound NOT metabolized | Compound NOT metabolized |
| CC(=O)CCCCn1c(=O)c2c(ncn2C)n(C)c1=O [PENTOXIFYLLINE] | Compound NOT metabolized | Compound NOT metabolized | Compound NOT metabolized | Compound NOT metabolized | Compound NOT metabolized | Compound NOT metabolized | Compound NOT metabolized | Compound NOT metabolized | Compound metabolized | Compound metabolized | Compound NOT metabolized | Compound NOT metabolized | Compound NOT metabolized | Compound NOT metabolized | Compound NOT metabolized | Compound NOT metabolized | Compound NOT metabolized | Compound NOT metabolized | Compound NOT metabolized | Compound NOT metabolized |
| CN[C@H]1CC[C@@H](c2ccc(Cl)c(Cl)c2)c2ccccc21 [SERTRALINE] | Compound NOT metabolized | Compound NOT metabolized | Compound NOT metabolized | Compound NOT metabolized | Compound metabolized | Compound NOT metabolized | Compound metabolized | Compound NOT metabolized | Compound metabolized | Compound metabolized | Compound metabolized | Compound NOT metabolized | Compound metabolized | Compound NOT metabolized | Compound metabolized | Compound NOT metabolized | Compound NOT metabolized | Compound metabolized | Compound metabolized | Compound NOT metabolized |
| CCCN(CCC)CCc1cccc2c1CC(=O)N2 [ROPINIROLE] | Compound NOT metabolized | Compound NOT metabolized | Compound NOT metabolized | Compound metabolized | Compound NOT metabolized | Compound NOT metabolized | Compound NOT metabolized | Compound NOT metabolized | Compound metabolized | Compound metabolized | Compound NOT metabolized | Compound NOT metabolized | Compound NOT metabolized | Compound NOT metabolized | Compound NOT metabolized | Compound NOT metabolized | Compound NOT metabolized | Compound NOT metabolized | Compound metabolized | Compound NOT metabolized |
| CCCN1C[C@H](CSC)C[C@@H]2c3cccc4[nH]cc(c34)C[C@H]21.CS(=O)(=O)O [PERGOLIDE MESYLATE] | Compound NOT metabolized | Compound NOT metabolized | Compound NOT metabolized | Compound NOT metabolized | Compound NOT metabolized | Compound NOT metabolized | Compound NOT metabolized | Compound NOT metabolized | Compound NOT metabolized | Compound NOT metabolized | Compound NOT metabolized | Compound NOT metabolized | Compound NOT metabolized | Compound NOT metabolized | Compound NOT metabolized | Compound NOT metabolized | Compound NOT metabolized | Compound NOT metabolized | Compound NOT metabolized | Compound NOT metabolized |
